# Data taken from patent publication US20160115196A1, “SELF-ASSEMBLED MICRO-AND NANOSTRUCTURES” (NORTHWESTERN UNIVERSITY, priority 2013, published 2016).
# Where no end group is shown, it is not given here. [ ]: non-standard residue; d: D form. Dopa = N[C@@H](Cc1ccc(O)c(O)c1)C(=O)O
# Tests used:
# [1] = Silver reduction / silver deposition assay; conditions: silver nitrate added to pre-formed assemblies; TEM, HR-SEM or E-SEM
# Experimental: Silver reduction assay was performed with pre-prepared Fmoc-DOPA-DOPA hydrogels at a concentration of 5 mg/mL (8.35 mM). 50 μL of 13.2 mM silver nitrate were added to 500 μL hydrogel aliquots by gentle pipetting, resulting in 1.2 mM final concentration of silver nitrate. This solution was incubated at room temperature for several days. At different time points, 10 μL aliquots were taken for TEM analysis and negative staining was not applied. To examine silver reduction using UV-vis spectroscopy, silver nitrate was added to a 5 mg/mL hydrogel pre-prepared as described above and 150 μL aliquots of Fmoc-DOPA-DOPA hydrogel with or without silver nitrate were pipetted into a 96-well UV-Star UV transparent plate (Greiner BioOne, Frickenhausen, Germany) Spectra were collected after 5 days using a Biotek Synergy HT plate reader over the range of 300-700 nm and compared to blank samples of silver nitrate only, or of the peptide only.
# Peptide stock solution was diluted to a final concentration of 5 mg/ml in double distilled water. Then metal salt (AgNO3) was added to the sample and the samples were analyzed by TEM or HR-SEM. AgNO3 concentration was determined according to the final catechol concentration in the peptide, with a constant ratio of [AgNO3]/[Catechol]=0.0723.
# Silver deposition was done by preparing 15 mM peptide solutions and removing residual peptide monomers. This was done by centrifugation at 12,000 RPM for 15 min, discarding the supernatant and resuspention in ultra-pure water. This procedure was repeated once more. Samples for electron microscopy were taken as control and the solution was centrifuged at 12,000 RPM for 15 min and resuspended in an aqueous solution of 2.17 mM AgNO3 for 15 min Finally, the solution was centrifuged at 9000 RPM for 10 min and resuspended in water. Samples for electron microscopy were taken again.
# [2] = AFM force mapping adhesion measurements with colloidal probe (Embodiment 2); assay type: physicochemical; conditions: for mean adhesion force from force map histogram: tip velocity 1000 nm/s, compressive force 20 nN
# Experimental: In an alternative embodiment, AFM analysis was performed using an Asylum MFP-1D AFM instrument (Asylum Research, Santa Barbara, Calif., USA).
# The AFM measurment was performed by emploting force mapping while simultaneously providing nanoscale topographical and mechanical information about the hydrogel. Force mapping involves generating individual force curves at discrete points on a material, which are then used to calculate stiffness and height values.
# (§1) After overnight incubation, 10 μL of each sample were deposited on a glass slide and dried at room temperature. Force measurements of the samples were conducted using a SiO2 colloidal probe (tip velocity 1000 nm/s, compressive force 20 nN). To investigate the glass surface area morphology after peeling, 30 μL of freshly prepared Fmoc-DOPA-DOPA-Lys solutions (12.5 mg/mL, prepared in DMSO or ethanol as described above) were deposited between two microscope glass slides. This construct was incubated overnight at room temperature under 100 mg weight Finally, the upper glass slide was peeled off and the contact area of either slide was imaged using an Ultrasharp AFM probe (NSC21/Ti-Pt, MikroMasch) operated in tapping mode.
# [3] = Thermal perturbation of assemblies (temperature-dependent CD, FTIR, TEM); assay type: physicochemical; conditions: 0.15 mM in water, stepwise 18° C. to 90° C. and back
# Experimental: CD spectra were collected as described above except that the spectra were obtained throughout temperature variation done in a stepwise fashion up and then down. […] (in the following steps: 25° C., 37° C., 50° C., 70° C., 90° C., 70° C., 50° C., 37° C., 25° C.). The sample was allowed to equilibrate for 10 min and the temperature was monitored by a thermocouple in the cuvette holder block. At the end of the measurments, the cuvette content was sampled for TEM and FTIR analysis as described above. As control, TEM and FTIR samples were taken from an aliquot of the same solution which was not subjected to temperature variations.
# [4] = Rheological measurements of in situ-formed hydrogel; assay type: physicochemical; conditions: 5 mg/mL
# Experimental: Rheological measurements for in situ-formed Fmoc-DOPA-DOPA hydrogel were performed using an AR-G2 rheometer (TA Instruments, New Castle, Del., USA). Time-sweep oscillatory tests in 20 mm parallel plate geometry were conducted at 0.7% strain and 1 Hz frequency on 200 μL of fresh solution (resulting in a gap size of about 0.6 mm), 1 min after its preparation. In order to determine the linear viscoelastic region oscillatory strain (0.01-100%) and frequency sweep (0.01-100 Hz) tests were conducted 45 min after diluting the stock solution with Milli-Q water. All rheology tests were done in triplicates and averaged.
# [5] = Macroscopic adhesion of two glass slides and peeling; assay type: physicochemical; conditions: prepared in ethanol or DMSO
# Experimental: as §1
molecule,measurement,setting,value
"3,4-dihydroxyphenyl-L-alanine-(3,4-dihydroxyphenyl-L-alanine) [DOPA-DOPA]",reduction of ionic silver / silver deposition on assemblies,[1],formation of silver particles
O=C(N[C@@H](Cc1ccc(O)c(O)c1)C(=O)O)OCC1c2ccccc2-c2ccccc21 [Fmoc-DOPA],mean adhesion force from force map histogram,"[2]; 1 mg/ml in 1% ethanol, one day of assembly",31±10.6 nN
D[Dopa]NK[Dopa],stability of the ultrastructure to elevated temperature,[3],ultrastructure is impaired by elevated temperatures
same,reduction of ionic silver / silver deposition on assemblies,[1],possess the ability to reduce ionic silver
Fmoc-DOPA-DOPA,mean adhesion force from force map histogram,[2]; 5 mg/ml in 5% ethanol,36±11 nN
same,storage modulus at 25° C. or 37° C. relative to hydrogels formed at 4° C.,[4],approximately 40 fold
same,storage modulus (G′) versus loss modulus (G″) in the linear region,[4]; 25° C.,more than one order of magnitude larger than the loss modulus
same,reduction of ionic silver / silver deposition on assemblies,[1],seamless coating of the peptide assemblies was clearly observed
Fmoc-DOPA-DOPA-Lys,adhesion force (force map),[2]; 1.25 wt% (12.5 mg/mL) prepared in 12.5% DMSO and water,> 300 nN
same,adhesion force (force map),[2]; 1.25 wt% (12.5 mg/mL) prepared in 12.5% ethanol and water,more than 214 nN
same,macroscopic adhesive properties,[5],capable of gluing together two glass slides
